How the values were obtained:
[1] = tested on: MM1 S (B lymphoblast cell line); assay: 48 hr CTG viability assay, MM1S; assay type: cell-based; settings: Homo sapiens, 48 hr CTG, read-out: MM1S IC50
Procedure, shortened: (§1)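 Growth inhibition by compound over 48 h; IC50 (nM) derived from duplicate CellTiter-Glo luminescence readings across 0.0015–10 uM.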

[2] = tested on: A549 (human lung carcinoma cell line); assay: Glo assay of A549 cells (Table 3; ProteasomeGlo plating scheme); assay type: cell-based; settings: Homo sapiens; A549 cells; read-out: PGLo A549
Procedure, shortened: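 IC50 values (nM) come from a cell-based chymotrypsin-like Proteasome-Glo luminescence assay. Compound exposure ran 105 min at 37° C.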

[3] = target: T1, β5 subunit of the human immunoproteasome (IPS) (Homo sapiens, UniProt P28062); assay: β5 inhibition assay, human immunoproteasome (Suc-LLVY-AMC); assay type: biochemical; settings: IC50 class, Suc-LLVY-AMC substrate
T1 construct: purchased Boston Biochem E-370
Procedure, shortened: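 β5 activity is read as liberated AMC fluorescence (355/460 nm) after 4 h dark reaction at RT with 22.6 μM Suc-LLVY-AMC, stopped by 1 μM bortezomib. Beforehand, 1 nM human IPS and compound sat 10 min at RT in HEPES pH 7.5 buffer containing NaCl, 0.02% SDS and DTT.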

[4] = tested on: Hs 746T (human gastric carcinoma cell line); assay: 48 hr CTG viability assay, Hs 746T; assay type: cell-based; settings: Hs746T, 48 hr CTG, read-out: Hs 746T IC50
Procedure, shortened: as §1

[5] = tested on: RPMI 8226 (B lymphocyte cell line, multiple myeloma); assay: 48 hr CTG viability assay, RPMI 8226; assay type: cell-based; settings: Homo sapiens, RPMI-8226; 48 hr CTG; read-out: RPMI-8226 IC50
Procedure, shortened: as §1

[6] = target: T2, β5 subunit of the human constitutive proteasome (CPS) (Homo sapiens, UniProt P28074); assay: β5 inhibition assay, human constitutive proteasome (Suc-LLVY-AMC); assay type: biochemical; settings: IC50 class, Suc-LLVY-AMC substrate
T2 construct: purchased Boston Biochem E-360
Experimental: The enzymatic activity of the β5 subunit of the human constitutive proteasome (CPS) is analyzed. In another assay, which differs from the assay of the human constitutive proteasome only in using the human immunoproteasome (IPS) the enzymatic activity of the β5 subunit of the human immunoproteasome (IPS) is analyzed. […] Inhibition is indicated as IC50 [nM] (“-”=not measured).

[7] = tested on: MDA-MB-468 (breast carcinoma); assay: 48 hr CTG viability assay, MDA-MB-468; assay type: cell-based; settings: Homo sapiens
Experimental: A viability assay was conducted for 48 hours to evaluate the inhibition of cancer cell growth by proteasome inhibitors. Briefly, the candidate cell line was plated with a 96-well plate following density of cells, respectively. 6×10^3 Cells/well for A2780 (human ovarian cancer cell line) and MDA-MB-468 (breast carcinoma), 8×10^3 Cells/well for Hs746T (human gastric carcinoma cell line), 1.1×10^4 Cells/well for MM1 S and RPMI 8226 (multiple myeloma). After 24 hours, the cells were treated with various concentrations of the compound (ranging from 0.0015 uM to 10 uM). […] After 48 hours of incubation at 37° C., 5% CO2 incubator, cells were analyzed for viability using the CellTiter-Glo Luminescent Cell Viability assay (Promega, Cat #G7570). All viability assays were performed in duplicate and Luminescence was read using an Envision (Perkin Elmer, USA). Data were analyzed using XLfit software. […] (human gastric carcinoma cell line), MM1 S (B lymphoblast cell line), and RPMI 8226 (B lymphocyte cell line, multiple myeloma). Inhibition is indicated as IC50 [nM] (“-”=not measured).

HT-29 cells = assay: CellTiter-Glo luminescent cell viability assay with HT-29 cells (72h incubation); assay type: cell-based, human; settings: Homo sapiens, HT-29, HT29 cells, read-out: CTG HT29
Procedure, shortened: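 Viability read as CellTiter-Glo luminescence after 72 h compound exposure, with 10 μM staurosporine and DMSO as control wells. Seeding 400 cells per well, compound added 24 h post-plating; IC50 from curve fitting.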

Karpas cells = assay: Glo assay of Karpas cells (Table 3; ProteasomeGlo plating scheme); assay type: cell-based; settings: read-out: Pglo Karpas
Source text: Inhibition is indicated as IC50 [nM] (“-”=not measured). […] • Chymotrypsin-Like Cell-Based Proteasome-GloTM Assay (Promega; […]) • Cell culture 384-well plates (Greiner BioOne; 781080) • Dispensing cassette, MultiDrop Standard tube dispensing cassette (Thermo Scientific; 24072670) • DPBS (Pan BioTech; P04-36500) • Cell culture 384-well plates (Greiner BioOne; 781080) • CPD source plate: diamond-shape plate (Labcyte; LP-0200) • Intermediate plate (Labcyte; P-05525) [table] • a. Remove the plates with cells from the incubator. • b. Take all the plates including the compound plate, intermediate plate and Staurosporine plate to the ECHO. • c. Click on “Open” in the ECHO software and select the protocol “QLI5_25ul_30 uM-Grenier”. • d. Follow the on-screen prompts and instructions once you click “Start” to insert the compound plate, intermediate plate and destination plates. • e. Change the final number of destination plates on the program. • f. Follow the on-screen prompts and instructions once you click “Start” to load the Staurosporine and destination plates. • g. Once all the compounds, DMSO and Staurosporine have been transferred, place the destination plates in a wet tissue box. • h. Place the destination plates back into the incubator and incubate at 37° C., 5% CO2 for 105 minutes. • i. Re-seal all the compound+Stauro diamond and intermediate plates and store in the dark. Chymotrypsin like ProteasomeGlo Assay • 1. Thaw the components of the ProteasomeGlo assay at room temperature including the ProteasomeGlo Buffer, the lyophilized Luciferin Detection Reagent and the Suc-LLVY-Glo Substrate. • 2. Reconstitute the Luciferin Detection Reagent in the amber coloured bottle by adding 50 ml of the ProteasomeGlo Buffer. • 3. Vortex the Suc-LLVY-Glo Substrate briefly to reconstitute the Substrate well. • 4. Spin down the Substrate and add 250 μl of the Substrate to the reconstituted Luciferin Detection Reagent from step 2. • 5. Briefly vortex the amber bottle with the mix to prepare a homogenous solution. • 6. Place the mix prepared in step 5 to sit at room temperature for 60 minutes. • 7. After 60 minutes, pipette 25 μl of the mix from step 5 into all wells with the cells. • 8. Shake the plates for 2-5 minutes to ensure the complete mixing of the ProteasomeGlo reagent with the cells. • 9. Leave the plates in the dark for 10-15 minutes. • 10. Measure the luminescence read-out using the Viktor and the protocol “Luminescence_384Well_0.2 sec”. (Note: The Protoeasome-GloTM Reagent (combined Proteasome-GloTM Substrate, Proteasome-GloTM Buffer and Luciferin Detection Reagent) can be stored at 4° C. or -20° C. for 1 month with minimal loss of activity.)

Row | IC50 [1] [nM] | IC50 [2] [nM] | IC50 [3] [nM] | IC50 [4] [nM] | IC50 [5] [nM] | IC50 [6] [nM] | IC50 [7] [nM] | IC50 (HT-29 cells) [nM] | IC50 (Karpas cells) [nM] | Structure (SMILES)
1 | < 100 | < 100 | < 100 | < 100 | < 100 | < 100 | < 100 |  |  | Cc1ccc2cc1CNC(=O)[C@H](CCc1ccccc1)NC(=O)[C@@H](NC(=O)C1(CO)CC1)CC(=O)N1CCCC(CCO2)C1 (stereo partly drawn) [Compound 664, 1-(hydroxymethyl)-N-((9S,12S)-5^4-methyl-8,11,14-trioxo-9-phenethyl-4-oxa-7,10-diaza-1(3,1)-piperidina-5(1,3)-benzenacyclotetradecaphane-12-yl)cyclopropane-1-carboxamide]
2 | < 100 | < 100 | < 100 | < 100 | < 100 | < 100 | < 100 |  |  | Cc1ccc2cc1CNC(=O)[C@H](CCc1ccccc1)NC(=O)[C@@H](NC(=O)C1(CO)CCOCC1)CC(=O)N1CCCC(CCO2)C1 (stereo partly drawn) [Compound 671, 4-(hydroxymethyl)-N-((9S,12S)-5^4-methyl-8,11,14-trioxo-9-phenethyl-4-oxa-7,10-diaza-1(3,1)-piperidina-5(1,3)-benzenacyclotetradecaphane-12-yl)tetrahydro-2H-pyran-4-carboxamide]
3 | < 100 | < 100 | < 100 | < 100 | < 100 | < 100 | < 100 |  |  | Cc1ccc2cc1CNC(=O)[C@H](CCc1cccnc1)NC(=O)[C@@H](NC(=O)C(C)(C)CO)CC(=O)N1CCCC(CCO2)C1 (stereo partly drawn) [Compound 683, 3-hydroxy-2,2-dimethyl-N-((9S,12S)-5^4-methyl-8,11,14-trioxo-9-(2-(pyridin-3-yl)ethyl)-4-oxa-7,10-diaza-1(3,1)-piperidina-5(1,3)-benzenacyclotetradecaphane-12-yl)propanamide]
4 | < 100 |  |  | < 100 | < 100 |  | < 100 |  |  | Cc1ccc2cc1CNC(=O)[C@H](CCc1ccccc1)NC(=O)[C@@H](NC(=O)Cc1ccc(NC(=O)[C@@H](N)CCC(=O)O)cc1C)CC(=O)N1CCCC(CCO2)C1 (some centres unmarked) [Compound 574]
5 | 1000 to 5000 | > 5000 | < 100 | > 5000 | 1000 to 5000 | 100 to 500 | > 5000 |  |  | Cc1ccc2cc1CNC(=O)[C@H](CCc1ccccc1)NC(=O)[C@@H](NC(=O)C(C)(C)CO)CC(=O)NCCCCO2 [Compound 735, 3-hydroxy-2,2-dimethyl-N-((10S,13S)-1^4-methyl-8,11,14-trioxo-13-phenethyl-2-oxa-7,12,15-triaza-1(1,3)-benzenacyclohexadecaphane-10-yl)propanamide]
6 | 100 to 500 | 100 to 500 | < 100 | 500 to 1000 | 500 to 1000 | < 100 | 1000 to 5000 |  |  | Cc1ccc2cc1CNC(=O)[C@H](CCc1ccccc1)NC(=O)[C@@H](NC(=O)C1(CO)CCNCC1)CC(=O)N1CCCC(CCO2)C1 (stereo partly drawn) [Compound 730, 4-(hydroxymethyl)-N-((9S,12S)-5^4-methyl-8,11,14-trioxo-9-phenethyl-4-oxa-7,10-diaza-1(3,1)-piperidina-5(1,3)-benzenacyclotetradecaphane-12-yl)piperidine-4-carboxamide]
7 | < 100 | < 100 | < 100 | < 100 | < 100 | < 100 | < 100 |  |  | Cc1ccc2cc1CNC(=O)[C@H](CCc1ccccc1)NC(=O)[C@@H](NC(=O)C(F)(F)CO)CC(=O)N1CCCC(CCO2)C1 (stereo partly drawn) [Compound 599, 2,2-difluoro-3-hydroxy-N-((9S,12S)-5^4-methyl-8,11,14-trioxo-9-phenethyl-4-oxa-7,10-diaza-1(3,1)-piperidina-5(1,3)-benzenacyclotetradecaphane-12-yl)propanamide]
8 | < 100 | < 100 | < 100 | < 100 | < 100 | < 100 | < 100 |  |  | Cc1ccc2cc1CNC(=O)[C@H](CCc1ccccc1)NC(=O)[C@@H](NC(=O)N1CCc3cc(N)ccc31)CC(=O)N1CCCC(CCO2)C1 (stereo partly drawn) [Compound 704, 5-amino-N-((9S,12S)-5^4-methyl-8,11,14-trioxo-9-phenethyl-4-oxa-7,10-diaza-1(3,1)-piperidina-5(1,3)-benzenacyclotetradecaphane-12-yl)indoline-1-carboxamide]
9 | 1000 to 5000 | 1000 to 5000 | < 100 | > 5000 | 500 to 1000 | < 100 | 1000 to 5000 |  |  | Cc1ccc2cc1CNC(=O)[C@H](CCc1ccccc1)NC(=O)[C@@H](NC(=O)C(C)(C)CO)CCC(=O)NCCCO2 [Compound 732, 3-hydroxy-2,2-dimethyl-N-((10S,13S)-1^4-methyl-7,11,14-trioxo-13-phenethyl-2-oxa-6,12,15-triaza-1(1,3)-benzenacyclohexadecaphane-10-yl)propanamide]
10 |  | 1000 to 5000 | < 100 |  |  | < 100 |  | 1000 to 5000 | 500 to 1000 | Cc1ccc2cc1CNC(=O)[C@H](CCc1ccccc1)NC(=O)CCCC(=O)N1CCCC(CCO2)C1 (stereo partly drawn) [Compound 19, (9S)-5^4-methyl-9-phenethyl-4-oxa-7,10-diaza-1(3,1)-piperidina-5(1,3)-benzenacyclopentadecaphane-8,11,15-trione]

From patent US20240415819A1, “MACROCYCLIC COMPOUNDS AS PROTEASOME SUBUNIT BETA TYPE-5 INHIBITORS” (Lead Discovery Center GmbH, priority 2021, published 2024)
